Results as given in publication PMC9968170 (Pharmaceutics, 2023).
Where two headings read alike, the source gives them in different places. One block for each compound: values may come before it.

Columns and labels:
[1] = test system: Bcrp; set-up: method as in PMID 31868552; settings: rats, cited from earlier work
[2] = PK of NOV (oral, given with FUR) in rats; format: in vivo, Sprague-Dawley rats; settings: NOV 20 mg/kg PO; for CL renal: Sprague-Dawley, rat, urine and whole blood, read-out: NOV renal clearance (CLR) (converted)
Experimental: The rats were housed 2–3 per cage in a specific-pathogen-free facility with controlled light (14/10 h, light/dark cycle), temperature (20–26 °C), and humidity (50 ± 20%).
For groups 2 and 4, the rats were fasted between 4 h prior to dosing and 2 h post-dose with free access to water. […] The blood samples (25 µL) were collected in duplicate in 1 mL tubes and mixed with an equal volume of water containing heparin (30 IU/mL containing 0.05% formic acid) at pre-dose, 0.25, 0.5, 0.75, 1, 1.5, 2, 4, and 6 h.
Next, 300 µL of acetonitrile containing FUR-d5 (as internal standard; 300 ng/mL) was added to 50 µL of the calibration curve standards, QC samples, and rat blood samples to precipitate blood proteins. […] One μL of the sample was injected and LC separation was achieved using an Acquity UPLC HSS T3 column (100Å, 1.8 µm, 1 mm × 100 mm) and mobile phase (A: water with 0.1% formic acid and B: acetonitrile with 0.1% formic acid; 50 μL/min flow) with a gradient program: 0.0–1.5 min (5% B), 1.5–3.5 min (5–70% B), 3.5–5 min (70–90% B), 5–7.5 min (90% B), and 7.5–7.6 min (90–5% B), followed by 5% B until 8.5 min. […] The cone voltage (CV) was 25 V.
Similarly, 25 µL of urine sample (diluted 10-fold with water containing 0.1% formic acid) was mixed with 75 µL of acetonitrile containing 100 ng/mL of FUR-d5.
(1) CLR=Ae 0−6 h/AUC0−6 h where, Ae is the cumulative amount of drug excreted unchanged in the urine between 0 to 6 h.

[3] = test system: human Bcrp; settings: cited from earlier work
[4] = test system: OAT3; set-up: method as in PMID 16489126, PMID 26700956, PMID 19282394; settings: human OAT3; cited from earlier work
[5] = test system: OAT1; set-up: method as in PMID 16489126, PMID 26700956, PMID 19282394; settings: human OAT1; cited from earlier work
[6] = FUR alone 5 mg/kg PO
[7] = cited from earlier work

SMILES: O=C(O)c1cc(/N=N/c2ccc(S(=O)(=O)Nc3ccccn3)cc2)ccc1O [sulfasalazine]
Effect of NOV on systemic clearance of sulfasalazine ([1]; intravenous dosing): not influenced
Increase of sulfasalazine AUC with NOV coadministration ([1]; oral administration): 3.2 fold
Increase of sulfasalazine Cmax with NOV coadministration ([1]; oral administration): 5.9 fold

AUC and Cmax of NOV, male vs female rats [2]: comparable
Food-effect on the PK of NOV ([2]; fed vs fasted state): no food-effect
SMILES: CO[C@@H]1[C@@H](OC(N)=O)[C@@H](O)[C@H](Oc2ccc3c(O)c(NC(=O)c4ccc(O)c(CC=C(C)C)c4)c(=O)oc3c2C)OC1(C)C [NOV, Novobiocin]

FUR CLR, male compared to female rats [6]: 2 fold
SMILES: NS(=O)(=O)c1cc(C(=O)O)c(NCc2ccco2)cc1Cl [FUR, Furosemide]
Fraction excreted unchanged in urine, fe [7]: ≈ 65%
